# Reference: patent US20090280549A1, “Method for Treating Body Fluid” (priority 2005, published 2009)
# Experiments:
# [1] = tested on: THP-1 cells (human monocytic leukemia cells); experiment: ATX-S10•Na(II) uptake into THP-1 cells; assay type: cell-based; conditions: for ATX-S10•Na(II) uptake: THP-1
# Experimental: (§1) After labeling the compound represented by formula (II) above (hereinafter referred to as “ATX-S10•Na(II)”) with ^14C, the ATX-S10•Na(II) was dissolved in saline at a concentration of approximately 1×10^−3 mol/L, and the solution was filtered and sterilized with a 0.22 μm filter and then diluted with 1% FBS (fetal bovine serum)-containing RPMI1640 medium to prepare a 5×10^−5 mol/L ATX-S10•Na(II)-added solution.
# (§2) As malignant lymphoma cells and leukemia cells, there were used THP-1 cells (human monocytic leukemia cells), EoL-1 cells (human eosinophilic leukemia cells), A3/KAW cells (human malignant lymphoma cells) and KG-1 cells (human acute myeloid leukemia cells). All of the cells were cultured using 10% FBS-containing RPMI1640 medium, with subculturing 1 to 2 times per week during the culturing. The THP-1 cells and EoL-1 cells were obtained from RIKEN BioResource Center, and the A3/KAW cells and KG-1 cells were obtained from Japan Health Sciences Foundation.
# (§3) After adding 400 μL of the cell suspension and 100 μL of the ATX-S10•Na(II)-added solution to each well of a 48-well microplate and mixing, the mixtures were incubated with a CO2 incubator (37° C., 5% CO2) or allowed to stand in a refrigerating chamber (approximately 4° C.). The cells were separated immediately after addition (0 hours after addition) and 1 hour, 3 hours, 20 hours and 44 hours after addition, and ATX-S10•Na(II) uptake into the cells (including cell surface binding) was measured. The uptake with standing at 4° C. corresponds to cell surface binding, and the value of the uptake with incubation at 37° C. minus the uptake with standing at 4° C. is presumed to correspond to the substantial ATX-S 10 Na(II) uptake for each type of cell.
# (§4) The cell separation and uptake measurement were performed in the following manner. Specifically, 1 mL of 1.5% BSA (bovine serum albumin)-containing PBS solution (ice-cold) was placed in a 1.5 mL tube. The suspension of cells to be separated was gently pipetted and mixed, and a 100 μL portion was taken and superposed onto the 1.5% BSA-containing PBS solution. For each well, the cell suspension (300 μL) was dispensed into three tubes (n=3). After centrifugation (3200 rpm, 10 minutes, 4° C.), the medium and 1.5% BSA-containing PBS solution were removed by suction, and then the precipitate was suspended in 100 μL of PBS(−), and 1 mL of PBS(−) was further added and mixed therewith. After additional centrifugation (3000 rpm, 10 minutes, 4° C.), the supernatant was removed by suction, and the bottom of the tube, where the precipitate is present, was cut out and transferred to a counting vial. Then 4.5 mL of liquid scintillator was added and mixed therewith, and the radioactivity was measured for 5 minutes using a liquid scintillation counter. The measured radioactivity was used to calculate the ATX-S10•Na(II) uptake (pmol/10^5 cells) into the cells.
# [2] = tested on: KG-1 cells (human acute myeloid leukemia cells); experiment: ATX-S10•Na(II) uptake into KG-1 cells; assay type: cell-based; conditions: for ATX-S10•Na(II) uptake: KG-1
# Experimental: as §1, §2, §3, §4
# [3] = tested on: THP-1 cells (activated macrophages) stimulated with PMA; experiment: ATX-S10•Na(II) uptake into THP-1 cells stimulated with PMA; assay type: cell-based, human
# Experimental: as §1, §2, §3, §4
# Uptake into THP-1 cells was measured also with stimulation of the cells for approximately 24 hours with PMA (2 nmol/L, 5 nmol/L or 15 nmol/L) and addition of ATX-S10•Na(II) to the cell suspension immediately after removal of the PMA. THP-1 cells differentiate into macrophages upon stimulation with PMA.
# [4] = tested on: A3/KAW cells (human malignant lymphoma cells); experiment: ATX-S10•Na(II) uptake into A3/KAW cells; assay type: cell-based; conditions: for ATX-S10•Na(II) uptake: A3/KAW
# Experimental: as §1, §2, §3, §4
# erythrocytes = experiment: ATX-S10•Na(II) uptake into erythrocytes; assay type: cell-based, human
# Experimental: as §1
# (§5) Erythrocytes, platelets, neutrophils and lymphocytes were prepared from blood sampled from three healthy persons (designated as A, B and C).
# The erythrocytes, neutrophils and lymphocytes were prepared from heparinized blood. […]
# as §3, with “The uptake with standing at 4° C. corresponds to cell surface binding, and the value of the uptake with incubation at 37° C. minus the uptake with standing at 4° C. is presumed to correspond to the substantial ATX-S 10 Na(II) uptake for each type of cell.” left out
# (§6) The cell separation and uptake measurement were performed in the following manner. […] Then 4.5 mL of liquid scintillator was added and mixed therewith, and the radioactivity was measured for 5 minutes using a liquid scintillation counter. […]
# platelets = experiment: ATX-S10•Na(II) uptake into platelets; assay type: cell-based, human
# Experimental: as §1, §5
# The platelets were prepared from citric acid-treated blood. […]
# as §3, with “The uptake with standing at 4° C. corresponds to cell surface binding, and the value of the uptake with incubation at 37° C. minus the uptake with standing at 4° C. is presumed to correspond to the substantial ATX-S 10 Na(II) uptake for each type of cell.” left out
# as §6
# [5] = 0 hr, immediately after addition
smiles,measurement,setting,value
C=Cc1c(C)c2cc3nc(cc4[nH]c(cc5nc(cc1[nH]2)C(C)=C5CCC(=O)NC(CC(=O)[O-])C(=O)[O-])c(CCC(=O)NC(CC(=O)[O-])C(=O)[O-])c4C)C(C)(O)/C3=C\C=NO.[Na+].[Na+].[Na+].[Na+] (centres unmarked) [ATX-S10•Na(II)],ATX-S10•Na(II) uptake,[1]; [5],0.56 pmol/10^5 cells
same,ATX-S10•Na(II) uptake,"[1]; 1 hr, incubation at 37° C.",3.30 pmol/10^5 cells
same,ATX-S10•Na(II) uptake,"[1]; 1 hr, standing at 4° C.",1.43 pmol/10^5 cells
same,ATX-S10•Na(II) uptake,"[1]; 3 hr, incubation at 37° C.",4.73 pmol/10^5 cells
same,ATX-S10•Na(II) uptake,"[1]; 3 hr, standing at 4° C.",2.88 pmol/10^5 cells
same,ATX-S10•Na(II) uptake,"[1]; 20 hr, incubation at 37° C.",18.39 pmol/10^5 cells
same,ATX-S10•Na(II) uptake,"[1]; 20 hr, standing at 4° C.",5.37 pmol/10^5 cells
same,ATX-S10•Na(II) uptake,"[1]; 44 hr, incubation at 37° C.",33.21 pmol/10^5 cells
same,ATX-S10•Na(II) uptake,"[1]; 44 hr, standing at 4° C.",1.94 pmol/10^5 cells
same,uptake compared between cell types,"[1]; THP-1 cells versus A3/KAW, KG-1 and EoL-1 cells",highest
same,substantial uptake of ATX-S10•Na(II) (uptake at 37° C. minus uptake at 4° C.),"[1]; THP-1 cells, course over incubation time",increased with incubation time
same,ATX-S10•Na(II) uptake,[2]; [5],0.40 pmol/10^5 cells
same,ATX-S10•Na(II) uptake,"[2]; 1 hr, incubation at 37° C.",2.34 pmol/10^5 cells
same,ATX-S10•Na(II) uptake,"[2]; 1 hr, standing at 4° C.",1.36 pmol/10^5 cells
same,ATX-S10•Na(II) uptake,"[2]; 3 hr, incubation at 37° C.",2.59 pmol/10^5 cells
same,ATX-S10•Na(II) uptake,"[2]; 3 hr, standing at 4° C.",1.50 pmol/10^5 cells
same,ATX-S10•Na(II) uptake,"[2]; 20 hr, incubation at 37° C.",6.85 pmol/10^5 cells
same,ATX-S10•Na(II) uptake,"[2]; 20 hr, standing at 4° C.",2.87 pmol/10^5 cells
same,ATX-S10•Na(II) uptake,"[2]; 44 hr, incubation at 37° C.",10.97 pmol/10^5 cells
same,ATX-S10•Na(II) uptake,"[2]; 44 hr, standing at 4° C.",0.96 pmol/10^5 cells
same,substantial uptake of ATX-S10•Na(II) (uptake at 37° C. minus uptake at 4° C.),"[2]; KG-1 cells, course over incubation time",increased with incubation time
same,uptake compared with unstimulated cells,[3]; THP-1 cells (activated macrophages) stimulated with PMA for 24 hours,higher than without stimulation with PMA
same,ATX-S10•Na(II) uptake,"[3]; THP-1 stimulated with 2 nmol/L PMA, 0 hr, immediately after addition",1.66 pmol/10^5 cells
same,ATX-S10•Na(II) uptake,"[3]; THP-1 stimulated with 2 nmol/L PMA, 3 hr, incubation at 37° C.",6.66 pmol/10^5 cells
same,ATX-S10•Na(II) uptake,"[3]; THP-1 stimulated with 2 nmol/L PMA, 3 hr, standing at 4° C.",7.05 pmol/10^5 cells
same,ATX-S10•Na(II) uptake,"[3]; THP-1 stimulated with 2 nmol/L PMA, 20 hr, incubation at 37° C.",11.75 pmol/10^5 cells
same,ATX-S10•Na(II) uptake,"[3]; THP-1 stimulated with 2 nmol/L PMA, 20 hr, standing at 4° C.",5.32 pmol/10^5 cells
same,ATX-S10•Na(II) uptake,"[3]; THP-1 stimulated with 5 nmol/L PMA, 0 hr, immediately after addition",2.07 pmol/10^5 cells
same,ATX-S10•Na(II) uptake,"[3]; THP-1 stimulated with 5 nmol/L PMA, 3 hr, incubation at 37° C.",11.37 pmol/10^5 cells
same,ATX-S10•Na(II) uptake,"[3]; THP-1 stimulated with 5 nmol/L PMA, 3 hr, standing at 4° C.",8.48 pmol/10^5 cells
same,ATX-S10•Na(II) uptake,"[3]; THP-1 stimulated with 5 nmol/L PMA, 20 hr, incubation at 37° C.",16.06 pmol/10^5 cells
same,ATX-S10•Na(II) uptake,"[3]; THP-1 stimulated with 5 nmol/L PMA, 20 hr, standing at 4° C.",7.53 pmol/10^5 cells
same,ATX-S10•Na(II) uptake,"[3]; THP-1 stimulated with 15 nmol/L PMA, 0 hr, immediately after addition",2.93 pmol/10^5 cells
same,ATX-S10•Na(II) uptake,"[3]; THP-1 stimulated with 15 nmol/L PMA, 3 hr, incubation at 37° C.",18.31 pmol/10^5 cells
same,ATX-S10•Na(II) uptake,"[3]; THP-1 stimulated with 15 nmol/L PMA, 3 hr, standing at 4° C.",12.74 pmol/10^5 cells
same,ATX-S10•Na(II) uptake,"[3]; THP-1 stimulated with 15 nmol/L PMA, 20 hr, incubation at 37° C.",19.95 pmol/10^5 cells
same,ATX-S10•Na(II) uptake,"[3]; THP-1 stimulated with 15 nmol/L PMA, 20 hr, standing at 4° C.",9.13 pmol/10^5 cells
same,substantial uptake of ATX-S10•Na(II) (uptake at 37° C. minus uptake at 4° C.),"[4]; A3/KAW cells, course over incubation time",increased with incubation time
same,ATX-S10•Na(II) uptake,[4]; [5],0.72 pmol/10^5 cells
same,ATX-S10•Na(II) uptake,"[4]; 1 hr, incubation at 37° C.",2.38 pmol/10^5 cells
same,ATX-S10•Na(II) uptake,"[4]; 1 hr, standing at 4° C.",1.16 pmol/10^5 cells
same,ATX-S10•Na(II) uptake,"[4]; 3 hr, incubation at 37° C.",3.79 pmol/10^5 cells
same,ATX-S10•Na(II) uptake,"[4]; 3 hr, standing at 4° C.",1.06 pmol/10^5 cells
same,ATX-S10•Na(II) uptake,"[4]; 20 hr, incubation at 37° C.",10.06 pmol/10^5 cells
same,ATX-S10•Na(II) uptake,"[4]; 20 hr, standing at 4° C.",1.44 pmol/10^5 cells
same,ATX-S10•Na(II) uptake,"[4]; 44 hr, incubation at 37° C.",27.64 pmol/10^5 cells
same,ATX-S10•Na(II) uptake,"[4]; 44 hr, standing at 4° C.",5.07 pmol/10^5 cells
same,ATX-S10•Na(II) uptake,erythrocytes,Almost no ATX-S10•Na(II) was taken up
same,Aggregation of platelets,platelets; after incubation at 37° C. for 44 hours,Aggregation of platelets was observed
same,ATX-S10•Na(II) uptake,platelets; platelets,Almost no ATX-S10•Na(II) was taken up
